Source: patent US12514862B2, “Testosterone containing pharmaceutical composition” (Diurnal Limited, priority 2020, dated 2026)

Experiments:
[1] = DITEST-001 single dose cross-over study: serum total testosterone pharmacokinetics; format: in vivo, human; conditions: DITEST both doses fed and 200 mg fasted; testosterone undecanoate fed; hypogonadal men
Protocol: (§1) The study was conducted in male participants from 18 to 80 years of age requiring testosterone replacement therapy for primary or secondary hypogonadism. The study was a randomized, active control, single dose, 2-way cross-over study in 2 cohorts. In each cohort participants who met the entry criteria at screening and baseline were randomized to one of 2 sequences:
(§2) Cohort 1: single dose of 120 mg (3×40 mg) DITEST followed by a single dose of 80 mg (2×40 mg) testosterone undecanoate or a single dose of 80 mg (2×40 mg) testosterone undecanoate followed by a single dose of 120 mg (3×40 mg) DITEST. The 2 treatments were separated by a minimum of a 7-day washout period, with both treatments given in the fed state.
(§3) Cohort 2: single dose of 200 mg (5×40 mg) DITEST (fed) followed by a single dose of 200 mg DITEST (fasted) or a single dose of 200 mg DITEST (fasted) followed by a single dose of 200 mg (5×40 mg) DITEST (fed). The 2 treatments were separated by a minimum of a 7-day washout period.
(§4) Twelve participants were to be recruited into each cohort (note: participants from Cohort 1 could be entered into Cohort 2 after a washout period of at least 3 months between cohorts). Participants were not recruited into Cohort 2 until the results of participants treated in Cohort 1 had been evaluated (this review determined if the intended dose for Cohort 2 needed to be adjusted). […]

[2] = DITEST-001 study: serum testosterone undecanoate and aqueous/lipid fractions of serum; format: in vivo, human
Excerpt: There is an unmet need for a native oral testosterone therapy for men with androgen (testosterone) deficiency. Current therapy for most hypogonadal patients in Europe and the United States of America (USA) is with either intramuscular injections or gels. These therapies have the disadvantages of pain with injections, skin reactions, and potential spread to partners with gels. At the time this study was designed, there was only one oral formulation of testosterone undecanoate on the market in the UK, but at that time this was not approved in the USA. DITEST is a novel formulation of native testosterone. […] Testosterone undecanoate is considered mainly absorbed through intestinal lymphatics, along with dietary lipids, whilst DITEST was formulated to permit absorption without the requirement for dietary lipids. To examine the proportions absorbed through lymphatics, the aqueous and lipid fractions of serum were separated for the measurement of serum testosterone. Since this was a first-in-human study, participants were closely monitored as inpatients during dosing. […]
as §4
(§5) • Testosterone serum concentrations after administration of a single dose of 120 mg or 200 mg DITEST and 80 mg testosterone undecanoate in the fed state, as measured by the primary PK parameters of maximum serum concentration (Cmax) and the area under the curve from 0 to 10 hours (AUC0-10). Secondary Endpoints • Testosterone serum concentrations after administration of a single 200 mg dose of DITEST in the fed and fasted states, as measured by the primary PK parameters of Cmax and AUC0-10. • AEs observed throughout the study. • Changes during the study in vital signs, ECG and safety laboratory data. […]

[3] = DITEST-001 study: safety (TEAEs, SAEs, ECG, vital signs); format: in vivo, human
Protocol: as §1, §2, §3
Twelve participants were to be recruited into each cohort (note: participants from Cohort 1 could be entered into Cohort 2 after a washout period of at least 3 months between cohorts). Participants were not recruited into Cohort 2 until the results of participants treated in Cohort 1 had been evaluated (this review determined if the intended dose for Cohort 2 needed to be adjusted). No other testosterone treatments were allowed for the duration of each cohort (including the washout periods) (note: participants who entered Cohort 1 were able to revert to their usual testosterone treatment, if applicable, on completion of this cohort and prior to screening for Cohort 2, if applicable). Each participant was required to attend the study site for a minimum of either 4 or 5 visits per cohort: a screening assessment, an evaluation of baseline testosterone levels after the washout period from the participant's current medication (only for participants currently on testosterone replacement therapy), both dosing days, and a follow-up visit at the end of the study. On each dosing day, participants were to remain in the study site and PK blood and saliva samples were taken at −0.5, −0.25 (Cohort 1 only), 0, 0.5, 1, 1.5, 2, 2.5, 3, 3.5, 4, 4.5, 5, 5.5, 6, 7, 8, and 10 hours. Further PK blood and saliva samples could be taken at up to 2 additional timepoints per period if deemed necessary based on emerging data. […] If necessary, for practical reasons, participants could stay overnight at the study site or at a nearby hotel the night before and/or the night after the dosing days.
as §5, with “data. Exploratory Endpoints: • To assess the levels of testosterone and DHT in serum. • To assess the levels of testosterone and testosterone undecanoate in the lipid and aqueous fractions of blood (testosterone undecanoate only measured in participants in the testosterone undecanoate arm). • To assess the levels of intact testosterone undecanoate in serum for participants who received testosterone undecanoate. • To compare testosterone concentrations in venous and capillary blood samples collected using the Mitra microsampling device with serum concentrations. • To compare the concentrations of testosterone in saliva with serum concentrations. • To evaluate the concentrations of androstenedione in saliva Statistical Methods” for “data.”

[4] = cited from earlier work

| SMILES | Serum testosterone levels following dosing [1] | Lipid fraction of serum testosterone undecanoate as part of total serum measurement of testosterone undecanoate ([2]; after 80 mg testosterone undecanoate) | Serum testosterone undecanoate levels relative to the testosterone levels ([2]; after dosing with 80 mg testosterone undecanoate) [fold] | Lipid fraction of testosterone relative to the serum concentration ([2]; single oral dose) | QT prolongation, reported as related to study intervention ([3]; Cohort 1: testosterone undecanoate 80 mg and DITEST 120 mg) | Total number of TEAEs reported ([3]; DITEST 120 mg fed, 200 mg fed and 200 mg fasted, testosterone undecanoate 80 mg fed) | Mean change in diastolic blood pressure ([3]; single doses) [mmHg] | Mean change in heart rate ([3]; single doses) [bpm] | Mean change in systolic blood pressure ([3]; single doses) [mmHg] | SAEs or severe AEs ([3]; single doses) | Non-aqueous Solubility, Alcohol ([4]; (wt/vol) at 20° C.) [in 5 parts] | Non-aqueous Solubility, Chloroform ([4]; (wt/vol) at 20° C.) [in 2 parts] | Non-aqueous Solubility, Dehydrated alcohol ([4]; (wt/vol) at 20° C.) [in 6 parts] | Non-aqueous Solubility, Dioxane ([4]; (wt/vol) at 20° C.) | Non-aqueous Solubility, Ether ([4]; (wt/vol) at 20° C.) [in 100 parts] | Non-aqueous Solubility, Ethyl oleate ([4]; (wt/vol) at 20° C.) | Non-aqueous Solubility, Vegetable oils ([4]; (wt/vol) at 20° C.) | Aqueous Solubility ([4]; at 20° C. in water) |
| --- | --- | --- | --- | --- | --- | --- | --- | --- | --- | --- | --- | --- | --- | --- | --- | --- | --- | --- |
| CCCCCCCCCCC(=O)O[C@H]1CC[C@H]2[C@@H]3CCC4=CC(=O)CC[C@]4(C)[C@H]3CC[C@]12C [Testosterone Undecanoate, testosterone undecanoate] | within the physiological range | over half | 10 | approximately 1/10 | One participant had QT prolongation | 8 | 1.5 | 8.5 | 12.8 | One SAE | – | – | – | – | – | – | – | – |
| C[C@]12CC[C@H]3[C@@H](CCC4=CC(=O)CC[C@@]43C)[C@@H]1CC[C@@H]2O [Testosterone, (8R,9S,10R,13S,14S,17S)-17-hydroxy-10,13-dimethyl-1,2,6,7,8,9,11,12,14,15,16,17-dodecahydrocyclopent a[a]phenanthren-3-one] | – | – | – | – | – | – | – | – | – | – | 1 | 1 | 1 | soluble | 1 | slightly soluble | soluble | <1 mg/mL (insoluble) at 20 °C in water |
